This series in a line: Particle size measurement of crystallized compound with Horiba L950 particle size analyzer. Format: physicochemical. To be noted: for Span: Span=(D90-D10)/D50; for median particle size: final solution after crystallization in system 10. From the text: Just as importantly as desirable small particle sizes is uniformity of particle size distributions (i.e., described by “D values”). D values of “D10”, “D50” and “D90” may be used to represent the midpoint and range of particle sizes of a given sample. The D10 particle size is the diameter at which 10% of a sample's mass is comprised of smaller particles. The D50 is the “mass median diameter” as it divides the sample equally by mass. The D90 particle size is the diameter at which 90% of a sample's mass is comprised of smaller particles.
System 10 of the present invention enables the production of customized particles within a narrow range of particle sizes. A common value used to express the uniformity of particle size distribution is the “span”. The span is a measure of how wide of a spectrum of particle sizes is produced. A system with a low relative span is desirable as it will produce more uniform distribution of particle sizes. Span can be calculated with the equation below: Span=(D90−D10)/D50.
Two grams of Paracetomol was dissolved in 100 grams of ethanol. Two grams of Soy Lecithin was dissolved in 50 grams of tetrahydrofuran (THF). The two solutions were combined and heated to 60° C. The solution was added to the input hopper of a dual piston pump 241. The pump 241 was fed into fluid input conduit 121 of the crystallization chamber 22 through a 0.006″ opening 701 of a nozzle 581. Heptane, at 10° C. was fed into fluid input conduits 122, 123 and 124 through 0.006″, 0.008″ and 0.008″ openings 702, 703, and 704 of nozzles 582, 583, and 584 respectively by an identical piston pump 242. The pressure on both pumps 241 and 242 was adjusted to 1000 psi. The mixed streams exited through fluid output conduit 32 and into fluid reservoir 34 containing approximately 100 ml of heptane. Approximately, the first third and last third of the mixture were discarded and only the central third collected in fluid reservoir 34. The final solution was sampled and the particle size was measured, in heptane, using a Horiba L950 particle size analyzer. The median particle size was about 1.3 microns. The Span was about 0.901.
Two grams of Carbamazepine was dissolved in 100 grams of ethanol. Two grams of Soy Lecithin was dissolved in 50 grams of THF. The two solutions were combined and heated to 60° C. The solution was added to the input hopper of a dual piston pump 241. The pump 241 was fed into fluid input conduit 121 of the crystallization chamber 22 through a 0.004″ opening 701 of a nozzle 581. Heptane, at 10° C. was fed into fluid input conduits 122, 123 and 124 through 0.006″, 0.007″ and 0.007″ openings 702, 703, and 704 of nozzles 582, 583, and 584 respectively by an identical piston pump 242. The pressure on both pumps 241 and 242 was adjusted to 1500 psi. The mixed streams exited through fluid output conduit 32 and into fluid reservoir 34 containing approximately 100 ml of heptane. Approximately, the first third and last third of the mixture were discarded and only the central third collected in fluid reservoir 34. The final solution was sampled and the particle size was measured, in heptane, using a Horiba L950 particle size analyzer. The median particle size was about 1.5 microns. The Span was about 0.916.
Two grams of Ketoprofen was dissolved in 100 grams of DMSO. Two grams of Sorbitan Monostearate was dissolved in 50 grams of THF. The two solutions were combined and heated to 60° C. The solution was added to the input hopper of a dual piston pump 241. The pump 241 was fed into fluid input conduits 121 of the crystallization chamber 22 through a 0.004″ opening 701 of a nozzle 581. DI water with 0.1% Polysorbate 20, at 5° C. was fed into fluid input conduits 122, 123 and 124 through 0.006″, 0.008″ and 0.008″ openings 702, 703, and 704 of nozzles 582, 583, and 584 respectively by an identical piston pump 242. The pressure on both pumps 241 and 242 was adjusted to 1500 psi. […]

For four compounds, Span and median particle size results are on record in patent US9732068B1, “System for crystalizing chemical compounds and methodologies for utilizing the same” (GenSyn Technologies, Inc., priority 2013, dated 2017).

Regarding `CC(C)c1c(C(=O)Nc2ccccc2)c(-c2ccccc2)c(-c2ccc(F)cc2)n1CC[C@@H](O)C[C@@H](O)CC(=O)O` [Atorvastatin, (3R,5R)-7-[2-(4-fluorophenyl)-3-phenyl-4-(phenylcarbamoyl)-5-propan-2-ylpyrrol-1-yl]-3,5-dihydroxyheptanoic acid], where the note is “measured in DI water”, the Span entry was “about 0.99” and the median particle size entry is “about 126 nanometers”.
Take `CC(C(=O)O)c1cccc(C(=O)c2ccccc2)c1` (racemic) [Ketoprofen, (RS)-2-(3-benzoylphenyl)propanoic acid]: where the note is “measured in DI water”, the Span entry was “about 1.078” and the median particle size result is on record as “about 3.1 microns”.
With `NC(=O)N1c2ccccc2C=Cc2ccccc21` [Carbamazepine, 5H-dibenzo[b,f]azepine-5-carboxamide], under “measured in heptane”, the Span result is “about 0.916” and the median particle size result is “about 1.5 microns”.
In the case of `CC(=O)Nc1ccc(O)cc1` [Paracetomol, N-(4-hydroxyphenyl)ethanamide], for the setting “measured in heptane”, the Span result is given as “about 0.901” and the median particle size entry is “about 1.3 microns”.
